Test results from patent US9896512B2, “Antitumor peptide derived from a complementarity determining region of a humanized monoclonal antibody to NAP12B transporter” (Recepta Biopharma S.A., priority 2010, dated 2018).
pEC50: −log10 of the molar value. Entries after “also recorded” stand apart in the source; their conditions may differ. No end group written: not given here.

What was measured:
[1] = In vivo peptide toxicity evaluation (histopathology); set-up: species or system mice; conditions: 300 μg via i.p., seven consecutive days
Method: Mice were injected with RB9 (SEQ ID NO: 8) for seven consecutive days (300 μg via i.p.) and were sacrificed thereafter for histopathology. […] Also the peptides were not hemolytic as shown in FIG. 21 for RB10M3 (SEQ ID NO: 31).

B16F10-Nex2 cells [2] = assay: Tumor cell invasion through Matrigel (Transwell); type: cell-based, murine; set-up: inhibition of cell invasion: dose or concentration left out as unconfirmed; conditions: 24 hours
Method: […] As a chemoattractant, 10% FCS in RPMI was used in the transwell lower chamber. After 24 hours at 37° C. in humidified atmosphere with 5% CO2, non-invasive cells were excluded with a swab, and cells that crossed the membrane were fixed with methanol and stained with Giemsa. Cells were counted in each transwell membrane, and the numbers of invasive cells are expressed as percentages.

3T3 murine fibroblasts = assay: Cell migration, wound healing assay; type: cell-based; conditions: normal non-tumorigenic cells
Method: (§1) For the migration studies, 5×10^5 or 10^6 cells were distributed on 6-well plates and let them to adhere for 2 hours at 37° C./5% CO2. The culture medium was changed and the peptide was added at 500 μM overnight. The cell monolayer was “wounded” with a P1000 tip and incubated for 24 hours. Images of untreated cells (control) and peptide treated cells were captured with a JENOPTIK camera. Cell numbers (nuclei) were determined using the Pixcavator software version 5.0.

[3] = tested on: T75 primary human fibroblasts; assay: Cell migration, wound healing assay; type: cell-based; conditions: normal non-tumorigenic cells
Method: as §1

[4] = tested on: FibroRP primary human fibroblasts; assay: Cell migration, wound healing assay; type: cell-based; conditions: normal non-tumorigenic cells
Method: as §1

[5] = tested on: human breast cancer SKBr-3 cells; assay: Cell migration, wound healing assay; type: cell-based; conditions: peptide 500 μM, 24 hours
Method: as §1

[6] = tested on: human ovary cancer OVCAR-3 cells; assay: Cell migration, wound healing assay; type: cell-based; conditions: peptide 500 μM, 24 hours
Method: as §1

[7] = tested on: human colon cancer HCT cells; assay: Cell migration, wound healing assay; type: cell-based; conditions: peptide 500 μM, 24 hours
Method: as §1

[8] = tested on: human melanoma A2058 cells; assay: Cell migration, wound healing assay; type: cell-based; conditions: peptide 500 μM, 24 hours
Method: as §1

OVCAR-3 cells = assay: Effect on ovarian carcinoma cells (trypsin-EDTA detachment, Trypan blue or MTT); type: cell-based, human; conditions: for cytotoxicity / activity against OVCAR-3 cells: 0 to 1 mM, 24 hours, Trypan blue / MTT; for hyper-adherent effect (detachment with trypsin/EDTA): up to 1 mM peptide
Method: (§2) Viable OVCAR-3 cells (1×10^4)/well were distributed on a 96-well culture plate and incubated for […] with different concentrations of RB9 (SEQ ID NO: 8) ranging from 0 to 1 mM for 24 hours. Cells were detached with 30 μl/well of trypsin-EDTA for five minutes at 37° C. and counted in a Neubauer chamber with Trypan blue or estimated by the colorimetric MTT assay.

[9] = Peptide degradation by human plasma (HPLC / mass spectrum); type: in vitro ADME
Method: (§3) Peptides have variable half lives in the plasma due to the proteolytic activity and the renal filtration, which are relevant aspects in the pharmacokinetics of drug candidates.
To analyze the peptide in HPLC and Mass Spectrum, an aliquot of 200 μL was transferred to a new Eppendorf tube and proteins were precipitated with 20 μL trifluoroacetic acid for 5 minutes at 4° C. After centrifugation for 10 minutes at 14,000 rpm, the supernatant was analyzed in an LC/ESI-MS (Waters).
Regarding assays for determining time-lapse plasma degradation of RB9 peptide, peptide degradation by human plasma was monitored in HPLC and Mass spectra every 30 minutes as described above (FIG. 12). About 50% RB9 was cleaved after 2 hours of incubation at 37° C.

Solubility comparison = type: physicochemical
Source text: as §3

HL-60 cells = assay: Cell viability, Trypan blue count or MTT assay; type: cell-based, human; conditions: for cytotoxicity to HL-60 cells: cells growing in suspension, Trypan blue / MTT
Method: as §2, with “HL-60” for “OVCAR-3”, “Cell viability was directly measured by counting” for “Cells were detached with 30 μl/well of trypsin-EDTA for five minutes at 37° C. and counted”

[10] = tested on: melanoma B16F10-Nex2 cells; assay: Alanine scanning series cell adhesion assay (MTT after trypsin-EDTA); type: cell-based, murine; conditions: 1 mM peptide, 24 hours
Method: The peptide RB10 (SEQ ID NO: 9) was engineered to replace each amino acid by alanine using Ala-scan methodology, and thus help evaluate the role of each amino acid on biological effect, specifically on the hyper-adherence observed with 1 mM peptide.
For this purpose, viable melanoma B16F10-Nex2 cells (1×10^4)/well were distributed on a 96-well culture plate and incubated for 4 hours. Fresh media containing 1 mM of the alanine-scanning series for RB10 was added and incubated for 24 hours. Treated cells were detached with 30 μl/well of trypsin-EDTA for five minutes at 37° C. and gently washed with PBS. Cells were incubated for 4 hours with 0.5 mg/mL of MTT [3-(4,5-Dimethylthiazol-2-yl)-2,5-diphenyltetrazolium bromide] in fresh media and the formazan crystals were solubilized adding 1 volume of a 10% SDS solution overnight. Intensity was measured using a plate reader at 570 nm. […] The 100% value for each peptide represented the treated cells that had not been trypsinized.

[11] = tested on: human cervix cancer HeLa cells; assay: Cell migration, wound healing assay; type: cell-based; conditions: peptide 500 μM, 24 hours
Method: as §1

B16F10-Nex2 cells [12] = assay: Growth inhibition (cell number by image analysis); type: cell-based, murine
Method: Viable B16F10-Nex2 cells (5×10^5)/well were distributed on a 6-well culture plate and incubated for 4 hours. Fresh medium containing 0 or 500 μM of RB10 ([…]) was added to the wells and incubated for 12 hours. Image was captured using a camera (Jenoptik) with the software Progres 2.8. The number of cells was detected using the software pixcavator (intelligent perception). After 12 hours with 0.5 mM of RB10, melanoma cells had fewer cells by 39% (FIG. 15); these cells were still able to proliferate but not to migrate. […] Magnification ×100.

B16F10-Nex2 cells [13] = assay: Superoxide anion production, dihydroethidium (DHE) assay; type: cell-based, murine; conditions: 1 mM, 18 hours
Method: Based on the internal interactions of components, such as, actin and peroxides in tumor cells, even leading to apoptosis, the production of anion superoxide in tumor cells treated with RB10 was examined by dihydroethidium (DHE) assay.
B16F10-Nex2 cells were treated with 1 mM RB10 for 18 hours or 5 mM H2O2 for 20 minutes. Treated cells with peptide or H2O2 and untreated cells were then incubated with DHE. Conversion of DHE to ethidium by oxidation was observed using fluorescence microscopy (Magnification 600×).

melanoma = assay: Primary tumor development in a subcutaneous model; type: in vivo; conditions: susceptible mice

Compound: C[C@@H]1NC(=O)[C@H](CCCNC(=N)N)NC(=O)[C@H](C)NC(=O)[C@H]([C@@H](C)O)NC(=O)[C@H](CCC(=O)O)NC(=O)CNC(=O)[C@H](CCCNC(=N)N)NC(=O)[C@H](C)NC(=O)[C@@H](N)CSSC[C@@H](C(N)=O)NC(=O)CNC(=O)[C@H](CCC(N)=O)NC(=O)CNC(=O)[C@H](Cc2c[nH]c3ccccc23)NC(=O)[C@H](Cc2ccc(O)cc2)NC(=O)[C@H](C)NC(=O)[C@H](Cc2ccccc2)NC(=O)[C@H]([C@@H](C)O)NC1=O [RB9, CARGETARATFAYWGQGC-NH2]
- toxicity, morphological alterations in liver, lung, heart, kidney and spleen [1]: No signs of toxicity or morphological alterations
- inhibition of cell invasion (B16F10-Nex2 cells [2]): 60%
- inhibition of cell invasion through Matrigel, dose dependence (B16F10-Nex2 cells [2]; 10% FCS chemoattractant): dose-dependent inhibition
- inhibition of cell migration (3T3 murine fibroblasts): did not affect; also recorded: non-inhibition
- inhibition of cell migration [3]: did not affect; also recorded: non-inhibition
- inhibition of cell migration [4]: did not affect; also recorded: non-inhibition
- inhibition of cell migration [5]: completely inhibited; also recorded: complete inhibition
- inhibition of cell migration [6]: half inhibited; also recorded: partial inhibition
- inhibition of cell migration [7]: completely inhibited; also recorded: partial inhibition
- inhibition of cell migration [8]: completely inhibited; also recorded: complete inhibition
- cytotoxicity / activity against OVCAR-3 cells (OVCAR-3 cells): inactive; also recorded: no significant decrease in viability; also recorded: lack of cytotoxicity
- hyper-adherent effect (detachment with trypsin/EDTA) (OVCAR-3 cells): normally detached; also recorded: most cells were unaffected
- degradation in human plasma at 24 hours ([9]; 24 hours, 37° C.): whole peptide was degraded; also recorded: total degradation
- peptide cleaved / degraded in human plasma ([9]; after 2 hours of incubation at 37° C.): 50%
- metabolised at 2 h, 1.67 mg/mL ([9]; human, human plasma, after 2 hours of incubation at 37° C., read-out: peptide cleaved / degraded in human plasma): ~50%
- solubility (comparison) (Solubility comparison): more soluble than RB10
- pEC50 (HL-60 cells; 24 hours, Trypan blue and MTT, read-out: concentration reducing cell viability by 50% (ED50)): 3.03 to 3.04
- cytotoxicity to HL-60 cells (HL-60 cells): mildly cytotoxic; also recorded: mild cytotoxicity

Compound: CARGETARATFAYWGQG-NH2 [RB10, CARGETARATFAYWGQG-NH2]
- trypsin/EDTA-resistant cell adherence [10]: high trypsin/EDTA-resistant cell adherence
- inhibition of cell migration [11]: complete or almost complete inhibition
- fewer cells than control (B16F10-Nex2 cells [12]; 0.5 mM, 12 hours): 39%
- inhibition of growth (B16F10-Nex2 cells [12]; 12 hours incubation): partial inhibition
- reaction with dihydroethidium (anion superoxide production) (B16F10-Nex2 cells [13]): positive
- cytotoxicity / activity against OVCAR-3 cells (OVCAR-3 cells): inactive
- hyper-adherent effect (detachment with trypsin/EDTA) (OVCAR-3 cells): normally detached
- cytotoxicity to HL-60 cells (HL-60 cells): mildly cytotoxic
- protection against development of a primary tumor (melanoma): not against the development of a primary tumor
